Where two headings read alike, the source gives them in different places.
Key:
MTT cytotoxicity assay = type: cell-based; settings: African green monkey (Chlorocebus sp.), Vero cells (kidney), four days incubation, Table 4
Method: (§1) Aedes albopictus clone C6/36 cells were maintained to propagate the dengue virus type 2 (DENV 2); African green monkey ( Chlorocebus sp.) kidney Vero cells were grown for antiviral analysis. Both cells were grown in Eagle’s Minimum Essential Medium (EMEM) (Biowest LLC, Riverside, MO, USA) with 10% Fetal Bovine Serum (FBS) (Biowest LLC).
The 96-well plates were seeded with 100 µL of Vero cell suspension at a density of 1 × 10^5 cells / mL and the next day were treated with different dilutions of the synthesized compounds. Control wells were treated with only the vehicle media used to prepare the antiviral dilutions. Plates were incubated for four days at 37 °C. Following the addition of 15 μL of MTT (Sigma-Aldrich Corp., St. Louis, MO, USA) solution into each well, the plates were incubated at 37 °C for another 4 h. Subsequently, the medium was carefully aspirated from all the wells and 100 μL of DMSO was added to each well [26]. The optical density (OD) of the wells was measured at 570 nm using a 96-well plate reader (Tecan Group AG, Männedorf, Switzerland). The percentage cell viability was calculated against the untreated controls. Dose-response curves were plotted. Half maximal cytotoxic concentration (CC50) was calculated using Graph Pad Prism for Windows, Version 5 (GraphPad Software Inc., San Diego, CA, USA).

DENV 2 [1] = test: CPE reduction-based antiviral assay (primary evaluation); type: cell-based, dengue virus type 2 (DENV 2); parameters: key: ++++ for total reduction; +++ for 75% reduction; ++ for 50% reduction; + for less than 50% reduction; -- for no reduction; settings: DENV 2-infected Vero cells, treated after 1 h viral adsorption, graded per Kudi and Myint
Method: as §1
Ribavirin tablets (Copegus, 200 mg, Genentech, Inc., South San Francisco, CA, USA) were purchased and stock solutions were stored. Dilutions were prepared in 2% FBS (maintenance media) at the time of assay. TCID50 assay was employed to measure the titer of the virus stocks for antiviral evaluation following standard methods. The viral CPE was observed on the third and fourth days and observations were recorded based on the Reed–Muench method.
Plates were seeded with Vero cell suspension (100 µL) at a density of 1 × 10^5 cells/mL one day before the wells were treated with TCID50 (100 µL) dilution of the DENV 2 stock and untreated control wells were maintained in parallel. After 1 h of viral adsorption, unbound viruses were washed and different antiviral dilutions were added. These plates were further incubated for 4 more days and were observed daily. Observations were recorded on the third and fourth days. The wells were marked for CPE reduction according to the grading system defined by Kudi and Myint.

DENV 2 [2] = test: Foci forming unit reduction assay (FFURA, secondary evaluation); type: cell-based, dengue virus type 2 (DENV 2); settings: for reduction in the number of foci: three different dilutions; for IC50: Dengue virus, 96 h, read-out: IC50 ± SE; for Selectivity index CC50/IC50: CC50 (Vero, MTT) / IC50 (FFURA, DENV 2)
Method: as §1
Antiviral activity was quantitatively validated by measuring the reduction in the number of DENV infectious foci after 4 days of treatment. DENV 2 infected Vero cells were treated with different antiviral dilutions supplemented with 2% FBS and 1.5% carboxymethyl cellulose (CMC). Virus foci were stained and visualized according to the published protocol. The number of foci was counted through stereomicroscope and virus titer was stated as foci forming unit (FFU). To calculate the antiviral activity of antidengue compounds, the percentage reduction in foci (%RF) was calculated between the treated, and untreated wells maintained in parallel. The assay was repeated three times, dose-response curves were plotted and half […] inhibitory concentration (IC50) and selectivity index (SI) were calculated.

[3] = DENV 2 infected Vero cells, foci reduction after 4 days of treatment

Row | Compound | CC50 at 4 days (MTT cytotoxicity assay) [µM] | CPE reduction (DENV 2 [1]) | reduction in the number of foci (DENV 2 [2]; DENV 2 infected Vero cells) | IC50 (DENV 2 [2]; Vero) [µM] | Selectivity index CC50/IC50 (DENV 2 [2]) | IC50 (DENV 2 [2]; [3]) [µM]
1 | CSC(=S)N/N=C1\C(=O)[C@@]2(C)CC[C@@H]1C2(C)C [SMSCQ, Methyl (Z)-2-((1R,4S)-4,7,7-trimethyl-3-oxobicyclo[2.2.1]heptan-2-ylidene)hydrazine-1-carbodithioate] | 69.2 ± 5.9 | + (+ for less than 50% reduction) | reduction in the number of foci appearance | 6.8 ± 2.8 |  | 
2 | C=C(C)[C@@H]1CC=C(C)/C(=N/NC(=S)SC)C1 [SMRCV, Methyl (R,E)-2-(2-methyl-5-(prop-1-en-2-yl)cyclohex-2-en-1-ylidene)hydrazine-1-carbodithioate] | 31.1 ± 8 | -- |  |  |  | 
3 | CSC(=S)N/N=C1\C[C@@H]2CC[C@@]1(C)C2(C)C [SMSCM, Methyl (E)-2-((1S,4S)-1,7,7-trimethylbicyclo[2.2.1]heptan-2-ylidene)hydrazine-1-carbodithioate] | 88.7 ± 2 | ++ (++ for 50% reduction) | reduction in the number of foci appearance |  | 14.3 | 6.2 ± 3.2
4 | C=C(C)[C@H]1CC=C(C)/C(=N/NC(=S)SC)C1 [SMSCV, Methyl (S,E)-2-(2-methyl-5-(prop-1-en-2-yl)cyclohex-2-en-1-ylidene)hydrazine-1-carbodithioate] | 24.5 ± 9.2 | -- |  |  |  | 
5 | CSC(=S)N/N=C1\C[C@H]2CC[C@]1(C)C2(C)C [SMRCM, Methyl (E)-2-((1R,4R)-1,7,7-trimethylbicyclo[2.2.1]heptan-2-ylidene)hydrazine-1-carbodithioate] | 88.4 ± 3.8 | ++ (++ for 50% reduction) | reduction in the number of foci appearance |  | 12.8 | 6.9 ± 1.2
6 | CC1(C)[C@H]2CC[C@]1(C)/C(=N/NC(=S)SCc1ccccc1)C2 [SBSCM, Benzyl (E)-2-((1S,4S)-1,7,7-trimethylbicyclo[2.2.1]heptan-2-ylidene)hydrazine-1-carbodithioate] | 87.2 ± 5.9 | ++ (++ for 50% reduction) | reduction in the number of foci appearance |  | 12.8 | 6.8 ± 2.3
7 | C=C(C)[C@@H]1CC=C(C)/C(=N/NC(=S)SCc2ccccc2)C1 [SBRCV, Benzyl (R,E)-2-(2-methyl-5-(prop-1-en-2-yl)cyclohex-2-en-1-ylidene)hydrazine-1-carbodithioate] | 28.5 ± 3.9 | + (+ for less than 50% reduction) |  |  |  | 
8 | C=C(C)[C@H]1CC=C(C)/C(=N/NC(=S)SCc2ccccc2)C1 [SBSCV, Benzyl (S,E)-2-(2-methyl-5-(prop-1-en-2-yl)cyclohex-2-en-1-ylidene)hydrazine-1-carbodithioate] | 29.2 ± 6.4 | + (+ for less than 50% reduction) |  |  |  | 
9 | CC1(C)[C@@H]2CC[C@@]1(C)/C(=N/NC(=S)SCc1ccccc1)C2 [SBRCM, Benzyl (E)-2-((1R,4R)-1,7,7-trimethylbicyclo[2.2.1]heptan-2-ylidene)hydrazine-1-carbodithioate] | 81.7 ± 4.4 | ++ (++ for 50% reduction) | reduction in the number of foci appearance |  | 10.4 | 7.8 ± 4.5

Reference: PMC7751940, “Synthesis, characterization and evaluation of antidengue activity of enantiomeric Schiff bases derived from S-substituted dithiocarbazate” (Turkish Journal of Chemistry, 2020)
